We go through 5 compounds from patent US20040110771A1, “7-(r)-aminotriazolopyrimidines, the production thereof and use of the same for combatting phytopathogenic fungi” (priority 2000, published 2004).

Common to all, as to format: in vivo
One assay has as its system Septoria tritici. Nature of the assay: Protective activity against Septoria foliar blotch disease of wheat caused by Septoria tritici. As to conditions: wheat seedlings "Riband", inoculated 24 h after spraying, 2 weeks. Here is the method: The active compounds were prepared separately or jointly as a 10% strength emulsion in a mixture of 70% by weight of cyclohexanone, 20% by weight of Nekanil® LN (Lutensol® AP6, wetting agent having emulsifying and dispersing action based on ethoxylated alkylphenols) and 10% by weight of Wettol® EM (nonionic emulsifier based on ethoxylated castor oil) and diluted with water to the desired concentration.
Leaves of potted wheat seedlings of the cultivar “Riband” were sprayed to runoff point with an aqueous preparation of active compound which had been prepared from a stock solution made of 10% of active compound, 85% of cyclohexanone and 5% of emulsifier. 24 hours after the spray coating had dried on, they were inoculated with an aqueous spore suspension of Septoria tritici. The suspension contained 2.0×10^6 spores/ml. The test plants were then placed in a greenhouse at 18-22° C. and a relative atmospheric humidity of close to 100%. After 2 weeks, the extent of the development of the disease was determined visually in % infection of the entire leaf area.

A further assay relates to Puccinia recondita. Nature of the assay: Curative activity against brown rust of wheat caused by Puccinia recondita. Conditions: curative spray 24 h after inoculation, wheat seedlings "Kanzler", 7 days. The method, boiled down:
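Wheat seedlings (cv. Kanzler) inoculated with brown rust spores and held 24 h at 90–95% humidity and 20–22°C, then sprayed to runoff with the emulsified compound the next day. Rust development on leaves scored after 7 days in greenhouse at 20–22°C and 65–70% relative humidity.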

Assay [1] relates to Blumeria graminis forma specialis tritici. The experiment in a line: Activity against mildew of wheat caused by Blumeria graminis forma specialis tritici. Conditions: wheat seedlings "Kanzler", dusted with spores 24 h after spraying, 7 days. In short, it runs like this:
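Compound, emulsified then diluted in water, sprayed to runoff onto leaves of potted wheat seedlings cv. Kanzler; inoculated with Blumeria graminis f. sp. tritici spores 24 h after the coating dried. Plants kept in greenhouse at 20-24° C., 60-90% relative humidity; mildew scored visually after 7 days as % infected leaf area.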

The test system of a further assay is Pyrenophora teres. The experiment in a line: Activity against net blotch of barley caused by Pyrenophora teres. As to conditions: barley seedlings "Igri", inoculated 24 h after spraying, 6 days. The method, boiled down: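 Potted barley seedlings (cv. Igri) were sprayed to runoff with aqueous compound preparation, then inoculated with P. teres spores 24 h after the spray dried. Plants were kept in a greenhouse at 20-24° C and 95-100% relative humidity, and disease was scored visually after 6 days as % infected leaf area.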

As for `CC(C)[C@@H](C)Nc1c(-c2c(F)cccc2Cl)c(Cl)nc2ncnn12` [I.-2], the “% infection of the leaves after application of an aqueous preparation comprising . . . ppm of active compound” value (“% infection of the leaves” for short) turned out to be 0% in the assay on Septoria tritici (16 ppm); 0% with Septoria tritici (63 ppm); 0% with Septoria tritici (250 ppm); 15% in the assay on Puccinia recondita (16 ppm); 5% with Puccinia recondita (63 ppm); 5% in the assay on Puccinia recondita (250 ppm). The “% infection of the leaves” value in assay [1] (63 ppm) and in assay [1] (250 ppm) was 40% in each case.
In the case of `CCC(C)Nc1c(-c2c(F)cccc2F)c(Cl)nc2ncnn12` (centres unmarked) [I.-4], the “% infection of the leaves” value with Septoria tritici (16 ppm) stood at 20%; in the assay with Septoria tritici (63 ppm) it was 15%; with Septoria tritici (250 ppm), 3%; with Puccinia recondita (16 ppm), 40%; in the assay with Puccinia recondita (63 ppm), 20%; in the assay on Puccinia recondita (250 ppm), 10%. In addition, the “% infection of the leaves” value in assay [1] (16 ppm) is recorded as 80%; in assay [1] (63 ppm), 60%; in assay [1] (250 ppm), 60%.
In the case of `CC(C)[C@@H](C)Nc1c(-c2c(F)c(F)c(F)c(F)c2F)c(Cl)nc2ncnn12` [I.-20], the “% infection of the leaves” value with Septoria tritici (16 ppm) came to 10%; in the assay with Septoria tritici (63 ppm), 10%; with Septoria tritici (250 ppm) it was 10%; in assay [1] (16 ppm), 30%; in assay [1] (63 ppm), 20%; in assay [1] (250 ppm), 5%. Also, the results for the “% infection of the leaves” value in the assay on Pyrenophora teres (16 ppm), in the assay on Pyrenophora teres (63 ppm) and in the assay with Pyrenophora teres (250 ppm) were 30%, 10% and 0%, respectively.
In the case of `CC[C@H](C)Nc1c(-c2c(F)c(F)c(F)c(F)c2F)c(Cl)nc2ncnn12` [comparison (S)-amine of I.-19], the “% infection of the leaves” value was 90% with Septoria tritici (16 ppm); 90% with Septoria tritici (63 ppm); 90% in the assay on Septoria tritici (250 ppm); 30% in assay [1] (63 ppm); 30% in assay [1] (250 ppm); 80% in the assay on Pyrenophora teres (250 ppm).
Consider `CC(C)[C@H](C)Nc1c(-c2c(F)c(F)c(F)c(F)c2F)c(Cl)nc2ncnn12` [comparison (S)-amine of I.-20], for which the “% infection of the leaves” value in the assay with Septoria tritici (16 ppm) is reported as 90%; with Septoria tritici (63 ppm), 90%; in the assay on Septoria tritici (250 ppm), 90%; in assay [1] (16 ppm), 80%; in assay [1] (63 ppm), 40%; in assay [1] (250 ppm), 40%. Besides, the “% infection of the leaves” value with Pyrenophora teres (16 ppm) is reported as 100%; in the assay on Pyrenophora teres (63 ppm), 40%; in the assay on Pyrenophora teres (250 ppm) it was 7%.
